This passage reports inhibition results from publication PMC8041284, “Tunable Methacrylamides for Covalent Ligand Directed Release Chemistry” (Journal of the American Chemical Society, 2021).

For the assay, the target named is BTK (Homo sapiens, UniProt Q06187). Description: biochemical. The note with it: read-out: BTK inhibition (%), 0.75 uM BTK, […] probe 3l, 15 min preincubation.
BTK, sequence (Q06187 402-655 limits assumed): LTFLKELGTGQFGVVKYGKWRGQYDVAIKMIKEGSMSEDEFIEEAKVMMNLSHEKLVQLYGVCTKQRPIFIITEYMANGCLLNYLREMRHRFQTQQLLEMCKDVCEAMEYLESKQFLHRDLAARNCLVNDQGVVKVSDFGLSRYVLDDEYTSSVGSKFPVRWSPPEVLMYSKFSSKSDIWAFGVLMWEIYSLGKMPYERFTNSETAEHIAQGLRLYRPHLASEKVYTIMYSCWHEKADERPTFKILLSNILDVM

Regarding `COc1cc(C)c2c(=O)c(-c3ccccc3)coc2c1` [PCM-0216420], the inhibition at 10 µM is 32.4%. In the case of `CC(C)=C1CC[C@@H](C)CC1=O` [PCM-0216421], the inhibition at 10 µM amounted to 14.7%. As for `C[C@@H]1CC[C@@]2(NC1)O[C@H]1C[C@H]3[C@@H]4CC=C5C[C@@H](O[C@@H]6O[C@H](CO)[C@@H](O[C@@H]7O[C@@H](C)[C@H](O)[C@@H](O)[C@H]7O)[C@H](O)[C@H]6O[C@@H]6O[C@@H](C)[C@H](O)[C@@H](O)[C@H]6O)CC[C@]5(C)[C@H]4CC[C@]3(C)[C@H]1[C@@H]2C` [PCM-0216423], the figure is 17.8%. In the case of `COc1cc(C[C@H](C)[C@H](C)Cc2ccc3c(c2)OCO3)ccc1O` [PCM-0216424] it was 68.7%; in that of `C[C@@]12C[C@@]3(O)O[C@@H](O1)[C@]1(COC(=O)c4ccccc4)[C@H]3C[C@@]12O[C@@H]1O[C@H](COC(=O)c2ccccc2)[C@@H](O)[C@H](O)[C@H]1O` [PCM-0216426], -18.5%; in that of `COc1cc2c(cc1O)[C@@H](Cc1ccc(O)c(Oc3ccc(C[C@@H]4c5cc(OC)c(OC)cc5CCN4C)cc3)c1)N(C)CC2` [PCM-0216427], 10.8%. Take `C/C=C(/C)C(=O)O[C@H]1[C@@H](OC(=O)CC(C)C)c2c(ccc3ccc(=O)oc23)OC1(C)C` [PCM-0216428]: the inhibition at 10 µM came to 7.7%. As for `C=C(C)[C@@H]1CC[C@]2(C=O)CC[C@]3(C)[C@H](CC[C@@H]4[C@@]5(C)CC[C@H](O)C(C)(C)[C@@H]5CC[C@]43C)[C@@H]12` [PCM-0216430], the figure is 19.3%; as for `COc1c(O)cc2c(c1O)C(=O)c1c(cc(C)c(O)c1OC)C2=O` [PCM-0216431], 28.6%. For `C[C@@H]1CC[C@@]2(OC1)O[C@H]1C[C@H]3[C@@H]4CC=C5C[C@@H](O[C@@H]6O[C@H](CO)[C@@H](O[C@@H]7O[C@@H](C)[C@H](O[C@@H]8O[C@@H](C)[C@H](O)[C@@H](O)[C@H]8O)[C@@H](O)[C@H]7O)[C@H](O)[C@H]6O[C@@H]6O[C@@H](C)[C@H](O)[C@@H](O)[C@H]6O)CC[C@]5(C)[C@H]4CC[C@]3(C)[C@@]1(O)[C@@H]2C` [PCM-0216432], the inhibition at 10 µM was -12.4%. As for `C=C1CCC[C@]2(C)Cc3occ(C)c3C[C@@H]12` [PCM-0216433], the figure is 2.3%; as for `CC1(C)CC[C@]2(C(=O)O)CC[C@]3(C)C(=CC[C@@H]4[C@@]5(C)CC[C@H](O[C@@H]6O[C@H](C(=O)O)[C@@H](O)[C@H](O[C@@H]7OC[C@@H](O)[C@H](O)[C@H]7O)[C@H]6O)C(C)(C)[C@@H]5CC[C@]43C)[C@@H]2C1` [PCM-0216434], 3.9%. Turning to `C[C@@H]1CC[C@]2(C(=O)O[C@@H]3O[C@H](CO)[C@@H](O)[C@H](O)[C@H]3O)CC[C@]3(C)C(=CC[C@@H]4[C@@]5(C)CC[C@H](O[C@@H]6OC[C@H](O)[C@H](O)[C@H]6O)C(C)(C)[C@@H]5CC[C@]43C)[C@@H]2[C@]1(C)O` [PCM-0216435], the inhibition at 10 µM was 7.7%. In the case of `C[C@@H]1CC[C@]2(C(=O)O)CC[C@]3(C)C(=CC[C@@H]4[C@@]5(C)CC[C@H](O[C@@H]6OC[C@H](O)[C@H](O)[C@H]6O)C(C)(C)[C@@H]5CC[C@]43C)[C@@H]2[C@]1(C)O` [PCM-0216436] it was 14.7%; in that of `COC(=O)c1c2c(c3ccccc3c1O)OC(C)(C)C=C2` [PCM-0216437], -27%. As for `COc1ccc(/C=C/c2cc(O)cc(O)c2)cc1O` [PCM-0216438], the inhibition at 10 µM was 14.7%. On to `C/C1=C\CC[C@H](C)C(=O)C[C@@H](C(C)C)C(=O)C1` [PCM-0216439], for which the inhibition at 10 µM was -3.9%. As for `COc1ccc([C@@H]2CC(=O)c3c(O)cc(O[C@@H]4O[C@H](CO)[C@@H](O)[C@H](O)[C@H]4O[C@@H]4O[C@@H](C)[C@H](O)[C@@H](O)[C@H]4O)cc3O2)cc1` [PCM-0216440], the figure is 2.3%. As for `O=C1C=C2C=C[C@@H](O)[C@H](O)[C@H]2O1` [PCM-0216441], the figure is 25.5%.

The inhibition is the drop in the measured response relative to a control, in per cent.
